# Source: patent US12144851B2, “Vaccinal strategy” (INSERM (INSTITUT NATIONAL DE LA SANTÉ ET DE LA RECHERCHE …, priority 2018, dated 2024)
# How the values were obtained:
# [1] = tested on: SARC-A2-MELOE-1 cells; assay: Anti-tumor vaccination with aSLP; type: in vivo, A2/DR1 mice; conditions: day 36, threshold 50 mm^2; prime 100 μg day 6 plus adjuvant, boost 14 days later; 0/7 in untreated, p=0.0513
# Protocol: The SARC-L1 cell line which spontaneously occurred in A2/DR1 mice was genetically modified to over-express HLA-A*0201 as previously described (Rangan et al Oncotarget, 2017). SARC-A2 cells were then transduced with a gammaretroviral dicistronic vector encoding the whole MELOE-1 antigen and, downstream of an IRES element, a puromycin N-acetyltransferase allowing selection of the transduced cells with puromycin (5 μg/mL). HLA-A*0201 expression was checked by flow cytometry. The capacity of the MELOE-1-transduced SARC-A2 (SARC-A2-MELOE-1) cells to present the A2-restricted MELOE-1 epitope was confirmed by their recognition by an HLA-A*0201-restricted T cell clone (data not shown).
# A2/DR1 mice were subcutaneously injected with 2×10^5 SARC-A2-MELOE-1 cells in 100 μl in the right flank. The first vaccination with aSLP (100 μg in IFA, as above) or adjuvant alone or PBS started when tumor became detectable (around 10 mm2). […] Tumor growth was evaluated twice a week using a caliper and mice were euthanized when their tumor exceeded 300 mm^2. The efficiency of anti-tumor vaccination was evaluated by Fisher's exact test (α=0.5%).
# To evaluate the anti-tumor potential of vaccination with aSLP, we used the previously described SARC-A2 cell line transduced with a cDNA encoding the whole MELOE-1 antigen. […] Mice were monitored until the end point at day 36. […]
# [2] = tested on: CD4+ T cells restimulated with MELOE-113-27; assay: Immunization of transgenic mice with SLP, ex vivo CD4 ELISpot-IFN-g; type: in vivo, HLA-DRB1*0101/HLA-A*0201 transgenic mice; conditions: immunized mice, FIG. 7C
# Protocol: HLA-DRB1*0101/HLA-A*0201 transgenic mice (A2/DR1 mice) were used to evaluate immunogenicity of peptides. Group of 5 female A2/DR1 mice (6 to 10 weeks) were immunized subcutaneously with 100 μg of each peptides emulsified in incomplete Freund adjuvant (v/v) plus 50 μg of polyI:C. At day 14 and day 28 boost vaccinations were performed with 50 μg of each peptide along with the same adjuvants. All experiments were carried out according to the good laboratory practices defined by the animal experimentation Rules in France.
# Specific immune responses were evaluated 10 days after the last boost by ELISpot-IFN-g (Diaclone, France). […] Ex vivo CD4 T cell responses were evaluated on the CD8 negative fraction as above with the HLA-DRB1*0101-restricted epitope MELOE-113-27. […] Spot-forming cells were counted using the «C.T.L. Immunospot» system (Cellular Technology Ltd). […]
# Finally, we explored the immunogenicity of our SLP in vivo in HLA-DRB1*0101/HLA-A*0201 transgenic mice. […] We focused on cross-presentation and thus assessed CD8 T cell responses by ELISpot-IFN-g after re-stimulation with the short MELOE-1136-44 epitope (SEQ ID NO:31) or with medium alone. […] In contrast, CD4 responses evaluated ex vivo towards the HLA-DRB1*0101 epitope were very low (FIG. 7C).
# [3] = tested on: MELOE-1, HLA A*0201 restricted CD8 T cell clone
sequence,measurement,setting,value
TSREQFLPSEGAACPPWLLSVGGTLNDECWPASL (Synthetic SLP) [SEQ ID NO: 87],mice in which tumor growth was inhibited,[1],4/8
same,CD4 responses evaluated ex vivo towards the HLA-DRB1*0101 epitope,[2],very low
same,Fold change = EC50 (M) of MELOE-111-46/EC50 (M) SLP,"[3]; SLP MELOE-113-27 xxxx MELOE-136-44, TNF-a response of CD8 T cell clone to SLP-loaded DC, range over independent experiments",12-56
same,cross-presentation compared with full length MELOE-1 / native antigen (in words),[3]; full length MELOE-1 as reference,the most efficiently processed and cross-presented
